Consider two compounds from paper PMC6362118, “Pharmacophore-guided discovery of CDC25 inhibitors causing cell cycle arrest and tumor regression” (Scientific Reports, 2019).

As usually defined, the IC50 is the midpoint of a concentration-inhibition curve. Read a high IC50 as weaker potency. As a reminder, the remaining activity is the share of the control activity or signal that is left under treatment.

One assay concerns the target T1, CDC25A (Homo sapiens, UniProt P30304).
T1 construct: GST (pGEX vector) (N); made in house; host or cells: E. coli BL21
T1 sequence (P30304 1-524): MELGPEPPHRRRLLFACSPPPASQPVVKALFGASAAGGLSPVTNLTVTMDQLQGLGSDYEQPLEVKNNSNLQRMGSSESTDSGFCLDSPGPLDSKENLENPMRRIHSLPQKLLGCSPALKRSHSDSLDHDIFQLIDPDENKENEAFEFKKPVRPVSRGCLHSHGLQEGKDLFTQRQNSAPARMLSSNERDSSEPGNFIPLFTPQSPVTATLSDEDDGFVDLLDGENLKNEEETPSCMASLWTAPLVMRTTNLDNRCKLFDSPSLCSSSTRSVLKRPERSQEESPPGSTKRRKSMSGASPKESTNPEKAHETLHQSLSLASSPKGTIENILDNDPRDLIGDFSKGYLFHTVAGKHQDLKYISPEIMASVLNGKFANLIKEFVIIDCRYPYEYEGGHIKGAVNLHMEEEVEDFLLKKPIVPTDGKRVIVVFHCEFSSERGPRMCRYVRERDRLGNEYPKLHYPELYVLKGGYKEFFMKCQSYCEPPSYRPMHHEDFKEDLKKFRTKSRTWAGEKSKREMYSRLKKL
Put plainly: Enzymatic assay (OMFP substrate) on recombinant CDC25A. Type of assay: biochemical. As for the experimental part: 57 UPD compounds were dissolved in DMSO at 10 mM stock concentration and stored in
60 Expression and purification of CDC25 phosphatases - CDC25A (kind gift of I.
61 Hoffmann, Heidelberg, Germany), CDC25B and CDC25C (kind gift of B. Gabrielli,
62 Queensland, Australia) in pGEX were expressed in E. coli BL21 cells and purified on 1
63 ml Glutathione Sepharose 4 Fast Flow columns as described 1.
(§1) 65 Enzymatic assays - CDC25A, CDC25B and CDC25C were appropriately diluted in 10
(§2) 66 mM Tris-HCl pH 8.0, 50 mM NaCl and assayed in 20 mM Tris-HCl pH 8.0, 75 mM
(§3) 67 NaCl, 0.5 mM EGTA, 1 mM DTT, 0.1 mg/ml BSA and defined concentrations of
(§4) 68 compounds. Reactions were started by addition of the substrate OMFP (0.1 mM). Assays
(§5) 69 were carried out at room temperature in duplicate or triplicate using transparent-bottom,
(§6) 70 V-shaped 96 well plates and read at defined intervals on a Molecular Devices
(§7) 71 SpectraMax microplate reader (ex: 490 nm / em: 525 nm). IC50 and kinetic parameters
(§8) 72 calculated from Lineweaver-Burk double-reciprocal plots of the data were obtained using
73 GraphPad Prism software. […]

On the set-up of assay [1]: method as in PMID 17970046. Conditions: due to rapid metabolism; cited from earlier work.
Assay [2] deals with HeLa cells. Put plainly: Cell viability assay on HeLa cells. Type of assay: cell-based. Conditions: 48h treatment. As to the method: (§9) 75 Cell culture - Wild-type HeLa and Kyoto HeLa cells stably expressing mCherry-H2B
(§10) 76 were maintained in DMEM+L-Glutamine (Gibco, Life Technologies, USA)
(§11) 77 supplemented with 5% fetal calf serum (FCS) (Gibco) and penicillin-streptomycin (100
78 U/ml - 100 µg/ml) (Gibco). […]
87 Cell viability assays - Compounds viability upon 48h treatment with the compounds was
88 assessed as described 4. Data were plotted with Prism 7® and analyzed by non-linear
89 regression. Comparison of single curve fitting to all data set within an experiment was
90 performed with the extra sum-of-squares F-test to determine P values. […]

In assay [3] the test system is HeLa cells. The experiment in a line: Flow cytometric analysis of cell cycle progression (DNA content) in HeLa cells. Type of assay: cell-based. As to the method: Reactions were started by addition of the substrate OMFP (0.1 mM). Assays 69 were carried out at room temperature in duplicate or triplicate using transparent-bottom, 70 V-shaped 96 well plates and read at defined intervals on a Molecular Devices 71 SpectraMax microplate reader (ex: 490 nm / em: 525 nm). IC50 and kinetic parameters 72 calculated from Lineweaver-Burk double-reciprocal plots of the data were obtained using 73 GraphPad Prism software. 74 75 Cell culture - Wild-type HeLa and Kyoto HeLa cells stably expressing mCherry-H2B 76 were maintained in DMEM+L-Glutamine (Gibco, Life Technologies, USA) 77 supplemented with 5% fetal calf serum (FCS) (Gibco) and penicillin-streptomycin (100 […] A549 and Colo741 were grown and maintained like HeLa 79 cells but with 10% FCS. HCT116 were maintained in McCoy's medium supplemented 80 with 10% FCS and penicillin-streptomycin. U2OS-Tet-OFF cells expressing HA-CDC25 81 were grown and maintained in DMEM+L-Glutamine, 10% Tet-free FCS and penicillin- 82 streptomycin in the presence or the absence of 4 μg/ml tetracycline (Sigma, T7660). 83 84 Cell synchronization - Cell synchronization was performed by double thymidine block- 85 release protocol 2 or nocodazole treatment 3 and verified by flow cytometry. 86 87 Cell viability assays - Compounds viability upon 48h treatment with the compounds was 88 assessed as described 4. Data were plotted with Prism 7® and analyzed by non-linear 89 regression. Comparison of single curve fitting to all data set within an experiment was 90 performed with the extra sum-of-squares F-test to determine P values. 91 92 Western blotting - Cell lysis and immunoblot analysis were performed as previously 93 described 5. […] Cells were washed with PBS, resuspended […] To 100 quantify phosphorylation of CDK1 at Tyr15 and H2AX at S139, cells were harvested and 101 examined as described 6. Samples were measured on an AttuneTM NxT Cytometer 102 (ThermoFisher Scientific, Carlsbad, CA, USA) and data were analyzed with FlowJo® 103 software v10 (FlowJo, LLC, Ashland, OR, USA). 104 105 Real Time qRT-PCR - Organoids were lysed in Tri-Reagent (Sigma) as previously 106 described 7 and total RNA was isolated as described by manufacturer's instructions. For […] 108 High Fidelity cDNA Synthesis kit (Roche). Real-time quantitative PCR reactions were 109 performed in three independent biological replicates, each with technical triplicate, using 110 the Applied Biosystems SYBR Green Kit and monitored by the ABI Prism 7900HT 111 system (Applied Biosystem). The following primers were used: 112 Lgr5: Forward [NT] and Reverse 5'- […] 114 Lysozyme: Forward [NT] and Reverse 5'- 115 [NT]3' 116 Cryptdin: Forward [NT] and Reverse 5'- 117 [NT]-binding protein (TBP): Forward [NT] and 119 Reverse [NT] 120 […] 122 amplification curves and the melting temperature analysis of the final amplification […] 4
In general terms: In flow cytometry, cells or beads pass a laser one at a time.

In assay [4] the test system is HeLa cells. Put plainly: Time-lapse microscopy of mitosis in synchronized HeLa cells. Type of assay: cell-based. As for the experimental part:
Cells were grown in 35 mm CellView™ cell culture dishes with glass bottom (# 627870, Greiner-BioOne) at a density of 2.5 × 10^5 cells/ml in a humidified cell incubator maintained at 37 °C and 5% CO2. Cell were viewed by phase contrast microscopy with a 10x objective using an Olympus IX 81 motorized inverted microscope (Olympus, Hamburg, Germany) equipped with external temperature control chamber and CO2 bottle to maintain cells at 37 °C with 5% CO2. Transition through mitosis was documented by acquisition of four frames per hour over a period of 14 h using a CCD camera (Orca AG, Hamamatsu) and cellR® software (Olympus). HeLa-Kyoto cells (mCherry-H2B/EGFP-α-tubulin) were visualized by fluorescence microscopy with an Olympus IX 81 microscope using a 10x objective and selecting Ex. = 492 ± 18 nm/Em. = 535 ± 50 nm for the green channel and Ex. = 572 ± 23 nm/Em. = 645 ± 75 nm for the red channel.

In assay [5] the test system is U2OS Tet-OFF cells expressing HA-CDC25A. Put plainly: Cell viability of U2OS Tet-OFF cells overexpressing HA-CDC25A. Type of assay: cell-based. Conditions: grown in the absence of tetracycline (HA-CDC25A induced). As to the method:
as §1, §2, §3, §4, §5, §6, §7, §8
73 GraphPad Prism software.
as §9, §10, §11
78 U/ml - 100 µg/ml) (Gibco). A549 and Colo741 were grown and maintained like HeLa
79 cells but with 10% FCS. HCT116 were maintained in McCoy’s medium supplemented
80 with 10% FCS and penicillin-streptomycin. U2OS-Tet-OFF cells expressing HA-CDC25
81 were grown and maintained in DMEM+L-Glutamine, 10% Tet-free FCS and penicillin- […]
88 assessed as described 4. Data were plotted with Prism 7® and analyzed by non-linear […]

For the compound `O=C1C(Cl)=C(NCCN2CCOCC2)C(=O)c2ncccc21` [NSC-663284, reference compound], on CDC25A (pre-incubation at ~3x IC50 (5 μM UPDs, 2 µM NSC663284), 10-fold dilution), the “mode of action (reversibility)” value is “irreversible”. Moreover, the “antitumor activity in mice” value in assay [1] was “minimal antitumor activity”. The same compound returned an IC50 in the assay with HeLa cells [2] of 2570 nM.
As for `Cc1c(O)ccc(C2=CC(=O)c3cccc(O)c3C2=O)c1O` [UPD-787, 8-hydroxy-2-(2,4-dihydroxy-3-methylphenyl) naphthalene-1,4-dione], the remaining activity at 20 µM at CDC25A (compound 20 µM, relative to DMSO control, read-out: % remaining activity ± SD (Table S2, second round of selection)) is 0.1 ± 0.3%. In addition, the “effect on cell cycle distribution (DNA content)” value in the assay on HeLa cells [3] (asynchronous HeLa cells, 10 μM, 15 h) is on record as “accumulation of cells at G2/M”. Further, the “effect on the G2/M transition” value in the assay with HeLa cells [3] (double-thymidine synchronized HeLa, 10 μM added 5 h upon release, analysed 12 h post-release) is given as “accretion of the G2/M peak”. Inhibition with HeLa cells [2] (Homo sapiens) was half-maximal at 900 nM (IC50). Further, the “execution of mitosis (time-lapse)” value in the assay with HeLa cells [4] (HeLa, 10 μM added 5 h upon release from 2x thymidine block, monitored 14 h) was “could not complete mitotic transition and died before reaching G1”. Also, the “execution of mitosis at low dose (time-lapse)” value in the assay with HeLa cells [4] (synchronized HeLa Kyoto cells (mCherry-H2B, GFP-α-tubulin), 5 μM) is “failed attempt to round up and execute mitosis, which was followed by membrane blebbing and death”. In assay [5], the “sensitivity of CDC25A overexpressing cells (viability)” value is “remained sensitive”.
